Test results reported in publication PMC10363480 (Plant Communications, 2023).
“Also recorded” adds a separate entry of the source.

What follows are sequences tested on mitochondria or chloroplast of Chlamydomonas reinhardtii (assay: Subcellular localization of Venus reporter by epifluorescence microscopy (manual targeting assignment)). Conditions: 15 N-terminal residues of RCA1-cTP added, no C-terminal element; Figure 2.
Format: cell-based
From the text: In a bid to keep peptidase recognition sites intact, C-terminal elements were designed to start 10 residues upstream of the cleavage site, even though this slightly truncates TP helices. Peptides carrying the 15-amino-acid cTP N-terminus (cTP-N) will be denoted ^cP. Similarly, peptides with C-terminal elements from RCA1-cTP (cTP-C) or CAG2-mTP (mTP-C) will be denoted P^c or P^m, respectively. Peptide variants are used to drive the subcellular localization of a Venus fluorescent reporter protein, which was assessed using fluorescence microscopy; in Figure 2, an executive overview of observed Venus localization is presented for all constructs. […] Here, we use automated image segmentation to validate our subcellular localization assessment (Supplemental Figure 2, Supplemental text). […] The reader will be asked to return to Figure 2 throughout, with Figures 3 and 4 providing selected micrographs as examples highlighting particular points of interest.
Chlamydomonas TP sequences were amplified from genomic DNA extracted from strain T222+ (CC-5101). Templates for codon-optimized HA-RAMP, RP, and R→K modified TP sequences were obtained by gene synthesis (Eurofins Genomics). Correct assembly was verified by sequencing (Eurofins Genomics). Linear transformation cassettes were generated through restriction digestion with EcoRV (New England Biolabs).
Constructs were transformed into wild-type strain T222+ (CC-5101) using a protocol described previously ([Onishi and Pringle, 2016]), except using 4 μl of DNA at 2 μg/μl.
Strains with suspected mitochondrial targeting were treated with 0.1 μM MitoTracker Red CMXRos (Thermo Fisher Scientific) in growth medium for 30 min in the dark and washed with TAP prior to taking images.
Legend for Fig. S3 – S20. Three independent transformant lines (Strains 1-3) are shown for each combination of modifications (A-L), represented by a cartoon and a shorthand description (cf. Fig.
2). Where a construct was interpreted as generating reporter localization in mitochondria or […]
Epifluorescence microscopy images of typical cells for each strain are shown. MitoTracker fluorescence, false-coloured in cyan, indicates the position of mitochondria (although parts of the cell exterior are sometimes also stained). False-coloured yellow fluorescence from the Venus channel reports on the subcellular localization of the fluorescent reporter. Chlorophyll autofluorescence, shown in magenta, indicates the location of the chloroplast. Scale bars are 5µm. Brightness (Br.) was adjusted for clarity: fluorescence intensity values were restricted to the range shown for each channel by matching coloured rectangles. Intensity scales to 0 at the bottom of the panel, and to 65535 at the top.
On the right-hand side, quantitative information associated with each construct is shown. Data was normalized such that averages range from 0 to 1 across all constructs (cf. Fig S2). Individual cell measurements may exceed this range; for clarity, the range shown here is limited to -0.5 to 1.5, with outliers that have more extreme values shown as lying beyond a dashed line. Strain 1 is plotted as circles, strain 2 as squares, and strain 3 as diamonds. Venus: Fluorescence plate reader data of transformants screened for this construct (Venus fluorescence, accounting for cell density using linear regression of OD750 and chlorophyll fluorescence trained on ‘no venus’ control transformants). Transformants that were not selected after screening are shown as small grey circles. A colour code ranging from white (low Venus fluorescence) to black (high Venus fluorescence) is used for strains 1-3 and the average thereof. Automated image quantification data: pyr/chl: Venus channel signal in the pyrenoid relative to in the chlorophyll region; mt/cell: Venus channel signal in mitochondria relative to the whole cell. Each point corresponds to a single cell.
The colour code code is the same as that below distributions in Fig. S2, i.e. blue highlights the […]
For “GKIPVKAIKKAGAAIGKGLRAINIASTAHDVYSFFKPKHKKK [SIM, SI moricin, HA-RAMP antimicrobial peptide, reference compound]”, the “chloroplast targeting upon sole addition of cTP-N (^cP)” value was “at least partial chloroplast targeting; also recorded: generated chloroplast targeting”.
“GWIRDFGKRIERVGQHTRDATIQTIAVAQQAANVAATLKG [S1D, sarcotoxin-1D, HA-RAMP antimicrobial peptide, reference compound]” was tested, and the “mitochondrial targeting upon sole addition of cTP-N (^cP)” value was “enabled mitochondrial targeting”.

Same assay, conditions: C-terminal element of RCA1-cTP added to the named peptide; Figure 2 rows E and F; bare name = K and R versions
For “GWIRDFGKRIERVGQHTRDATIQTIAVAQQAANVAATLKG [S1D, sarcotoxin-1D, HA-RAMP antimicrobial peptide, reference compound]”, the “chloroplast targeting upon addition of cTP-C (P^c)” value was “enabled chloroplast targeting”.
With “KYYGNGVHCTKSGCSVNWGEAFSAGVHRLANGGNGFW [LCA, leucocin A, HA-RAMP antimicrobial peptide, reference compound]” the “chloroplast targeting upon addition of cTP-C (P^c)” value was “enabled chloroplast targeting”.
With “KYYGNGVSCNKKGCSVDWGKAIGIIGNNAAANLTTGGKAGWKG [EHF, enterocin HF, HA-RAMP antimicrobial peptide, reference compound]” the “chloroplast targeting upon addition of cTP-C (P^c)” value was “enabled chloroplast targeting”.

Same assay, conditions: C-terminal element of RCA1-cTP added to the named peptide; Figure 2 rows E and F; bare name = K and R versions; listed as LCAK
For “KYYGNGVHCTKSGCSVNWGEAFSAGVHRLANGGNGFW [LCA, leucocin A, HA-RAMP antimicrobial peptide, reference compound]”, the “chloroplast targeting upon addition of cTP-C (P^c)” value was “Gain of partial chloroplast targeting”.

Same assay, conditions: Figure 2; bare name = K and R versions
“GKIPVKAIKKAGAAIGKGLRAINIASTAHDVYSFFKPKHKKK [SIM, SI moricin, HA-RAMP antimicrobial peptide, reference compound]” was tested, and the “targeting when combining cTP-N with mTP-C (^cP^m)” value (“targeting when combining cTP-N” below) was “chloroplast targeting”.
“GLFSKFNKKKIKSGLIKIIKTAGKEAGLEALRTGIDVIGCKIKGEC [E1S, esculentin-1SEA, HA-RAMP antimicrobial peptide, reference compound]” was tested, and the “targeting when combining cTP-N” value was “chloroplast targeting”.
In the case of “GWIRDFGKRIERVGQHTRDATIQTIAVAQQAANVAATLKG [S1D, sarcotoxin-1D, HA-RAMP antimicrobial peptide, reference compound]”, the “targeting when combining cTP-N” value is reported as “dual targeting”.
With “KYYGNGVHCTKSGCSVNWGEAFSAGVHRLANGGNGFW [LCA, leucocin A, HA-RAMP antimicrobial peptide, reference compound]” the “targeting when combining cTP-N” value was “chloroplast targeting”.
In the case of “KYYGNGVSCNKKGCSVDWGKAIGIIGNNAAANLTTGGKAGWKG [EHF, enterocin HF, HA-RAMP antimicrobial peptide, reference compound]”, the “targeting when combining cTP-N” value is reported as “chloroplast targeting”.

Same assay, conditions: manual targeting assignment of the Venus reporter construct in Chlamydomonas: Neither / Mitochondria / Chloroplast / Dual, (partial) = partial targeting
For “MALWRTMLRRLGTMALHAGRAAFGAAADTISQ [DDM.R]”, the Localisation was “Neither”.
“MALWRTMLRRLGTMALHAGRAAFGAAADTISQLTQTAESFRGVSSQFFDAPNGPSVKQVLIEDEW [DDM.R.m]” was tested, and the Localisation was “Neither”.
“MALWRTMLRRLGTMALHAGRAAFGAAADTISQSVRRAQLQVVASSRKQMGRWRSIDAGVDASDDQ [DDM.R.c]” was tested, and the Localisation was “Neither”.
In the case of MDEVNNDNCRIRFRGDISSESDRMNINY [RP2.R], the Localisation is reported as “Neither”.
For “MDEVNNDNCRIRFRGDISSESDRMNINYLTQTAESFRGVSSQFFDAPNGPSVKQVLIEDEW [RP2.R.m]”, the Localisation was “Neither”.
In the case of “MDEVNNDNCRIRFRGDISSESDRMNINYSVRRAQLQVVASSRKQMGRWRSIDAGVDASDDQ [RP2.R.c]”, the Localisation is reported as “Neither”.
With MGGAKVATK [CH.K] the Localisation was “Neither”.
In the case of “MGGAKVATKLTQTAESFRGVSSQFFDAPNGPSVKQVLIEDEW [CH.K.m]”, the Localisation is reported as “Neither”.
In the case of “MGGAKVATKSVKKAQLQVVASSKKQMGKWKSIDAGVDASDDQ [CH.K.c]”, the Localisation is reported as “Neither”.
MGGARVATR [CH.R] was tested, and the Localisation was “Neither”.
“MGGARVATRLTQTAESFRGVSSQFFDAPNGPSVKQVLIEDEW [CH.R.m]” was tested, and the Localisation was “Neither”.
With “MGGARVATRSVRRAQLQVVASSRKQMGRWRSIDAGVDASDDQ [CH.R.c]” the Localisation was “Chloroplast”.

Same assay, conditions: peptide-Venus reporter construct expressed in Chlamydomonas reinhardtii; manual targeting assignment (Neither / Mitochondria / Chloroplast / Dual; partial = partial targeting)
In the case of MALWMTLLKKVLKAAAKAALNAVLVGANA [DS4.K], the Localisation is reported as “Neither”.
For “MALWMTLLKKVLKAAAKAALNAVLVGANALTQTAESFRGVSSQFFDAPNGPSVKQVLIEDEW [DS4.K.m]”, the Localisation was “Neither”.
With “MALWMTLLKKVLKAAAKAALNAVLVGANASVRRAQLQVVASSRKQMGRWRSIDAGVDASDDQ [DS4.K.c]” the Localisation was “Neither”.
For MALWMTLLRRVLRAAARAALNAVLVGANA [DS4.R], the Localisation was “Neither”.
In the case of “MALWMTLLRRVLRAAARAALNAVLVGANASVRRAQLQVVASSRKQMGRWRSIDAGVDASDDQ [DS4.R.c]”, the Localisation is reported as “Neither”.
In the case of MFLPLLAGLAANFLPKIFCKITRKC [B1E.K], the Localisation is reported as “Neither”.
In the case of “MFLPLLAGLAANFLPKIFCKITRKCLTQTAESFRGVSSQFFDAPNGPSVKQVLIEDEW [B1E.K.m]”, the Localisation is reported as “Neither”.
“MFLPLLAGLAANFLPKIFCKITRKCSVRRAQLQVVASSRKQMGRWRSIDAGVDASDDQ [B1E.K.c]” was tested, and the Localisation was “Neither”.
With MFLPLLAGLAANFLPRIFCRITRRC [B1E.R] the Localisation was “Neither”.
For “MFLPLLAGLAANFLPRIFCRITRRCLTQTAESFRGVSSQFFDAPNGPSVKQVLIEDEW [B1E.R.m]”, the Localisation was “Neither”.
With “MFLPLLAGLAANFLPRIFCRITRRCSVRRAQLQVVASSRKQMGRWRSIDAGVDASDDQ [B1E.R.c]” the Localisation was “Neither”.
In the case of MGIGKFLHSAKKFGKAFVGEIMNS [MII.K], the Localisation is reported as “Mitochondria (partial)”.
“MGIGKFLHSAKKFGKAFVGEIMNSLTQTAESFRGVSSQFFDAPNGPSVKQVLIEDEW [MII.K.m]” was tested, and the Localisation was “Mitochondria (partial)”.
For “MGIGKFLHSAKKFGKAFVGEIMNSSVRRAQLQVVASSRKQMGRWRSIDAGVDASDDQ [MII.K.c]”, the Localisation was “Mitochondria”.
With MGIGRFLHSARRFGRAFVGEIMNS [MII.R] the Localisation was “Mitochondria”.
For “MGIGRFLHSARRFGRAFVGEIMNSLTQTAESFRGVSSQFFDAPNGPSVKQVLIEDEW [MII.R.m]”, the Localisation was “Mitochondria (partial)”.
With “MGIGRFLHSARRFGRAFVGEIMNSSVRRAQLQVVASSRKQMGRWRSIDAGVDASDDQ [MII.R.c]” the Localisation was “Mitochondria”.
With “MGLFSKFNKKKIKSGLIKIIKTAGKEAGLEALRTGIDVIGCKIKGEC [E1S.K]” the Localisation was “Neither”.
For “MGLFSKFNKKKIKSGLIKIIKTAGKEAGLEALRTGIDVIGCKIKGECLTQTAESFRGVSSQFFDAPNGPSVKQVLIEDEW [E1S.K.m]”, the Localisation was “Neither”.
With “MGLFSKFNKKKIKSGLIKIIKTAGKEAGLEALRTGIDVIGCKIKGECSVRRAQLQVVASSRKQMGRWRSIDAGVDASDDQ [E1S.K.c]” the Localisation was “Neither”.
For “MGLFSRFNRRRIRSGLIRIIRTAGREAGLEALRTGIDVIGCRIRGEC [E1S.R]”, the Localisation was “Neither”.
With “MGLFSRFNRRRIRSGLIRIIRTAGREAGLEALRTGIDVIGCRIRGECLTQTAESFRGVSSQFFDAPNGPSVKQVLIEDEW [E1S.R.m]” the Localisation was “Mitochondria (partial)”.
In the case of “MGLFSRFNRRRIRSGLIRIIRTAGREAGLEALRTGIDVIGCRIRGECSVRRAQLQVVASSRKQMGRWRSIDAGVDASDDQ [E1S.R.c]”, the Localisation is reported as “Neither”.

Same assay, conditions: targeting of the Venus reporter fused to the peptide, expressed in Chlamydomonas reinhardtii; manual assignment from epifluorescence microscopy; full or partial
“MALWKTMLKKLGTMALHAGKAAFGAAADTISQ [DDM.K]” was tested, and the Localisation was “Neither”.
In the case of “MALWKTMLKKLGTMALHAGKAAFGAAADTISQLTQTAESFRGVSSQFFDAPNGPSVKQVLIEDEW [DDM.K.m]”, the Localisation is reported as “Neither”.
With “MALWKTMLKKLGTMALHAGKAAFGAAADTISQSVRRAQLQVVASSRKQMGRWRSIDAGVDASDDQ [DDM.K.c]” the Localisation was “Neither”.
For “MALWMTLLRRVLRAAARAALNAVLVGANALTQTAESFRGVSSQFFDAPNGPSVKQVLIEDEW [DS4.R.m]”, the Localisation was “Neither”.
MDEVNNDNCRIKFKGDISSESDKMNINY [RP2.K] was tested, and the Localisation was “Neither”.
With “MDEVNNDNCRIKFKGDISSESDKMNINYLTQTAESFRGVSSQFFDAPNGPSVKQVLIEDEW [RP2.K.m]” the Localisation was “Neither”.
With “MDEVNNDNCRIKFKGDISSESDKMNINYSVRRAQLQVVASSRKQMGRWRSIDAGVDASDDQ [RP2.K.c]” the Localisation was “Neither”.
“MGKIPVKAIKKAGAAIGKGLRAINIASTAHDVYSFFKPKHKKK [SIM.K]” was tested, and the Localisation was “Neither”.
In the case of “MGKIPVKAIKKAGAAIGKGLRAINIASTAHDVYSFFKPKHKKKLTQTAESFRGVSSQFFDAPNGPSVKQVLIEDEW [SIM.K.m]”, the Localisation is reported as “Neither”.
In the case of “MGKIPVKAIKKAGAAIGKGLRAINIASTAHDVYSFFKPKHKKKSVRRAQLQVVASSRKQMGRWRSIDAGVDASDDQ [SIM.K.c]”, the Localisation is reported as “Neither”.
With “MGLLLDTLKGAAKDIAGIALEKLKCKITGCKP [R2G.K]” the Localisation was “Neither”.
